EPA's CvTdb concentration-time database

Tests used:
Rat [1] = test: concentration in plasma after dosing
Rat [2] = test: concentration in brain after dosing
Rat [3] = test: concentration in liver after dosing; conditions: dosed: Perfluorooctane Sulfonate, oral
Rat [4] = test: concentration in kidney after dosing; conditions: dosed: Perfluorooctane Sulfonate, oral
rat [5] = test: concentration in blood after dosing; negative times count back from the end of exposure; conditions: dosed: trichloroethylene, inhalation, duration: 4 hr

O=S(=O)([O-])C(F)(F)C(F)(F)C(F)(F)C(F)(F)C(F)(F)C(F)(F)C(F)(F)C(F)(F)F [Perfluorooctane Sulfonate]
dosed: Perfluorooctane Sulfonate
Conditions	concentration in brain, Rat [2] [ng/g]	concentration in plasma, Rat [1] [µg/mL]
1 h, 2 mg/kg, iv, Female, F344	–	4.19
1 h, 2 mg/kg, iv, Female, Harlan Sprague-Dawley	–	4.68
1 h, 2 mg/kg, oral, Female, Harlan Sprague Dawley	–	2.21
5 min, 2 mg/kg, iv, Female, F344	–	4.54
5 min, 2 mg/kg, iv, Female, Harlan Sprague-Dawley	–	4.94
5 min, 2 mg/kg, oral, Female, Harlan Sprague Dawley	–	0.0458
6 h, 2 mg/kg, iv, Female, F344	–	4.36
6 h, 2 mg/kg, iv, Male, F344	–	4.28
6 h, 2 mg/kg, oral, Female, Harlan Sprague Dawley	–	3.97
6 h, 20 mg/kg, oral, Female, F344	3650	–
6 h, 20 mg/kg, oral, Male, Harlan Sprague Dawley	5430	–
12 h, 2 mg/kg, iv, Female, F344	–	4.3
12 h, 2 mg/kg, iv, Male, F344	–	3.68
12 h, 2 mg/kg, oral, Female, Harlan Sprague Dawley	–	7.55
24 h, 2 mg/kg, iv, Female, F344	–	4.32
24 h, 2 mg/kg, iv, Female, Harlan Sprague-Dawley	–	3.66
24 h, 2 mg/kg, iv, Male, F344	–	3.47
24 h, 2 mg/kg, oral, Female, Harlan Sprague Dawley	615	4.65
24 h, 20 mg/kg, oral, Female, F344	11500	–
24 h, 20 mg/kg, oral, Male, Harlan Sprague Dawley	9570	–
192 h, 2 mg/kg, iv, Female, F344	–	4.59
192 h, 2 mg/kg, iv, Female, Harlan Sprague-Dawley	–	2.49
192 h, 2 mg/kg, oral, Female, Harlan Sprague Dawley	–	3.13
528 h, 2 mg/kg, iv, Female, F344	–	3.28
528 h, 2 mg/kg, iv, Female, Harlan Sprague-Dawley	–	2.17
528 h, 2 mg/kg, iv, Male, F344	–	1.77
528 h, 2 mg/kg, oral, Female, Harlan Sprague Dawley	–	2.69
864 h, 2 mg/kg, iv, Female, F344	–	1.54
864 h, 2 mg/kg, iv, Male, F344	–	1.3
864 h, 2 mg/kg, oral, Female, Harlan Sprague Dawley	–	1.61
864 h, 20 mg/kg, oral, Female, F344	3420	–
864 h, 20 mg/kg, oral, Male, Harlan Sprague Dawley	2750	–
1200 h, 2 mg/kg, iv, Female, F344	–	2.01
1200 h, 2 mg/kg, iv, Female, Harlan Sprague-Dawley	–	0.65
1200 h, 2 mg/kg, iv, Male, F344	–	1.65
1200 h, 2 mg/kg, oral, Female, Harlan Sprague Dawley	–	1.1
1704 h, 2 mg/kg, iv, Female, F344	–	1.84
1704 h, 2 mg/kg, iv, Female, Harlan Sprague-Dawley	–	0.868
1704 h, 2 mg/kg, iv, Male, F344	–	0.573
1848 h, 2 mg/kg, oral, Female, Harlan Sprague Dawley	–	0.78
1848 h, 20 mg/kg, oral, Female, F344	1270	–
1848 h, 20 mg/kg, oral, Male, Harlan Sprague Dawley	1560	–
2376 h, 2 mg/kg, iv, Female, F344	–	0.75
2376 h, 2 mg/kg, iv, Female, Harlan Sprague-Dawley	–	0.698
2376 h, 2 mg/kg, iv, Male, F344	–	0.395
2520 h, 2 mg/kg, oral, Female, Harlan Sprague Dawley	–	0.388
3216 h, 2 mg/kg, iv, Female, F344	–	0.0903
3360 h, 2 mg/kg, oral, Female, Harlan Sprague Dawley	–	0.237
3360 h, 20 mg/kg, oral, Male, Harlan Sprague Dawley	672	–

Conditions	concentration in kidney, Rat [4] [ng/g]	concentration in liver, Rat [3] [ng/g]
6 h, 2 mg/kg, Female, Harlan Sprague Dawley	4960	24800
6 h, 20 mg/kg, Female, F344	112000	118000
6 h, 20 mg/kg, Male, Harlan Sprague Dawley	85500	135000
24 h, 2 mg/kg, Female, Harlan Sprague Dawley	5860	24400
24 h, 20 mg/kg, Female, F344	131000	127000
24 h, 20 mg/kg, Male, Harlan Sprague Dawley	66800	148000
864 h, 2 mg/kg, Female, Harlan Sprague Dawley	1750	13200
864 h, 20 mg/kg, Female, F344	53400	72900
864 h, 20 mg/kg, Male, Harlan Sprague Dawley	21500	93900
1848 h, 2 mg/kg, Female, Harlan Sprague Dawley	923	5150
1848 h, 20 mg/kg, Female, F344	21400	44900
1848 h, 20 mg/kg, Male, Harlan Sprague Dawley	10500	51000
3360 h, 2 mg/kg, Female, Harlan Sprague Dawley	517	8200
3360 h, 20 mg/kg, Male, Harlan Sprague Dawley	2460	22900

ClC=C(Cl)Cl [trichloroethylene]
rat [5]
Conditions	concentration in blood [µg/mL]
-3.5 h, 600 ppm, female, F344, during exposure	16.8
-3.459 h, 600.4 ppm, female, F344, during exposure	16.2
-0.4732 h, 600.4 ppm, female, F344, during exposure	29
0.203 h, 50 ppm, male, Sprague Dawley	0.936
0.2286 h, 50 ppm, male, Sprague Dawley	0.807
0.2287 h, 50 ppm, male, Sprague Dawley	1.08
0.2341 h, 50 ppm, male, Sprague Dawley	1.13
0.2372 h, 600 ppm, female, F344	21.8
0.2627 h, 600.4 ppm, female, F344	18.8
0.4545 h, 50 ppm, male, Sprague Dawley	1.17
0.477 h, 50 ppm, male, Sprague Dawley	0.624
0.4781 h, 50 ppm, male, Sprague Dawley	0.461
0.4921 h, 50 ppm, male, Sprague Dawley	0.758
0.4935 h, 600 ppm, female, F344	16.1
0.5358 h, 600.4 ppm, female, F344	13.4
0.9773 h, 600 ppm, female, F344	4.98
0.9775 h, 50 ppm, male, Sprague Dawley	0.548
0.9966 h, 50 ppm, male, Sprague Dawley	0.412
1.025 h, 600.4 ppm, female, F344	8.56
1.027 h, 50 ppm, male, Sprague Dawley	0.319
1.739 h, 600 ppm, female, F344	2.97
1.944 h, 50 ppm, male, Sprague Dawley	0.181
1.987 h, 50 ppm, male, Sprague Dawley	0.389
2.009 h, 50 ppm, male, Sprague Dawley	0.301
2.054 h, 600.4 ppm, female, F344	3.6
4.006 h, 50 ppm, male, Sprague Dawley	0.217
4.049 h, 50 ppm, male, Sprague Dawley	0.207
250 s, 600 ppm, female, F344	24.7

rat [5], 50 ppm, male, Sprague Dawley, during exposure
Conditions	concentration in blood [µg/mL]
-313 s	1.44
-72 s	1.05
-67 s	1.72
-14 s	2.07
-3.578 h	0.917
-3.528 h	0.611
-3.504 h	0.68
-3.419 h	0.998
-3.27 h	0.824
-3.051 h	1.33
-3.011 h	0.745
-3.008 h	1.37
-2.984 h	1.29
-2.064 h	1.65
-2.027 h	1.11
-2.007 h	1.38
-1.985 h	1.95
-1.07 h	1.85
-1.031 h	1.92
-1.023 h	1.01
-1.012 h	1.7

Cc1ccc(C)c(OCCCC(C)(C)C(=O)O)c1 [Gemfibrozil]
concentration in plasma [µg/mL], Rat [1], dosed: Gemfibrozil, oral, Male, Sprague-Dawley
Conditions	4.29 mg/kg	50 mg/kg	100 mg/kg
0.25 h	0.25	17.9	67.4
0.5 h	0.314	15.7	34.6
1 h	0.147	5.64	26.2
2 h	0.307	3.31	8.5
4 h	0.566	8.04	6.87
5 min	0.395	1.58	13.3
6 h	0.401	9.04	19.6
10 h	0.286	4.86	–
10 min	2.26	7.42	40.2
15 h	0.137	1.87	–
18 h	0.108	0.975	2.19
24 h	0.128	0.92	1.8

CC1CCCO1 (stereo not drawn) [2-Methyltetrahydrofuran]
dosed: 2-Methyltetrahydrofuran, 40 mg/kg, iv, Harlan Sprague Dawley
Conditions	concentration in brain, Rat [2] [µg/mL]	concentration in plasma, Rat [1] [µg/mL]
0.2 h, Male	24.7	35
0.5 h, Female	15.4	27.2
0.5 h, Male	13.5	32.2
0.75 h, Male	22	24
1.5 h, Male	9.21	14
2 h, Female	5.7	7.55
2 h, Male	9.63	10.7
2 min, Female	41.7	73.3
2 min, Male	32.4	50
4 h, Female	0.0736	0.101
4 h, Male	0.356	0.977
6 h, Female	–	0.0133
6 h, Male	0.0215	0.00893
7 min, Male	29.7	46.5
